Experimental data from patent US20260374818A1, “CATIONIC PEPTIDES WITH BROAD SPECTRUM ACTIVITY” (priority 2023, published 2026).
Where a SMILES comes first, the peptide text is derived from it. [ ]: non-standard residue; d: D form.

What was measured:
[1] = tested on: 3-day-old oral plaque biofilms; assay: Oral plaque biofilm model, brief (1 minute) exposure, dead cell volume; format: cell-based; conditions: 10 μg/ml, 1 minute once or three times, compared to DJK5
[2] = tested on: P. aeruginosa PAO1 biofilms; assay: Checkerboard biofilm synergy of AB103-D with antimicrobials, PAO1; format: cell-based, Pseudomonas aeruginosa
[3] = tested on: oral multispecies biofilm; assay: Oral multispecies biofilm development on HA disks; format: cell-based; conditions: 10 μg/ml, 3 days
[4] = tested on: A. baumanii biofilms on Ker-CT epidermal skin; assay: Skin organoid biofilm model, AB103-D loaded Medvance foam dressing, A. baumanii; format: cell-based, Acinetobacter baumannii
[5] = tested on: 3-day-old oral plaque biofilms; assay: Plaque biofilms treated with oral rinse solutions for 14 days; format: cell-based; conditions: 0.12% CHX+10 μg/mL peptide, twice daily
Experimental: Briefly, after the formation of a 3-day-old biofilm, HA disks were rinsed in PBS for 1 minute and assigned to one of five treatment groups: (i) sterile water, (ii) Listerine Total Care Mouthwash (Johnson & Johnson Inc., Canada), (iii) GUM Paroex Mouthwash (Sunstar, USA), (iv) 0.12% CHX+10 μg/mL of peptide DJK-5, and (v) 0.12% CHX+10 μg/mL of peptide AB103-D. For each treatment, the disks were treated twice each day (i.e. at 8 am and […] for the first and second time, respectively). Treatment consisted of a droplet of 40 μl of each solution spread on the surface of the biofilm for 1 minute, followed by rinsing with PBS for 1 minute and then placing the disk back into the 24-well plates under anaerobic conditions at 37 °C. On the 0, 1st, 3rd, 7th, 10th, and 14th day, three disks from each group were collected for confocal microscopy analysis. Biofilms were stained with fluorescent dyes SYTO-9 and propidium iodide, which stain live cells green and dead cells red, respectively. The scale bar represents 200 μm. […]. […] The results indicated improved antibiofilm effects of AB103-D on 3-day-old oral plaque biofilms compared to treatment by various oral rinse solutions for 14 days.

[6] = tested on: MRSA biofilms on N/TERT epithelial skin; assay: Skin organoid biofilm model, peptide-loaded collagen dressings, MRSA; format: cell-based, methicillin resistant Staphylococcus aureus; conditions: compared to DJK-5 and ciprofloxacin
[7] = tested on: peripheral blood mononuclear cells (PBMCs); assay: Cytotoxicity (LDH release), PBMCs
[8] = tested on: MRSA biofilms on human skin organoid; assay: Skin organoid biofilm infection model, peptide solution, MRSA; format: cell-based, methicillin resistant Staphylococcus aureus; conditions: peptide solution 4 hrs (FIG. 3A)
[9] = tested on: P. aeruginosa biofilms on N/TERT epithelial skin; assay: Skin organoid biofilm model, peptide-loaded collagen dressings, P. aeruginosa; format: cell-based, Pseudomonas aeruginosa; conditions: compared to DJK-5 and ciprofloxacin
[10] = tested on: P. aeruginosa 27312 wound biofilms; assay: Porcine dermal biofilm wound infection model, P. aeruginosa; format: in vivo, porcine; Pseudomonas aeruginosa; conditions: compared with ciprofloxacin, silver sulfadiazine
Description: . Peptide (PEP1=DJK5; PEP3=AB103-D) solutions were used to hydrate Puracol® resorbable dressings made of collagen either alone or in the presence of antibiotic (ABX1=ciprofloxacin). Briefly, partial thickness wounds (10 mm×7 mm×1 mm deep) were created on the backs of the animals then infected with log-phase cultures of bacteria and allowed biofilms to form for 24-hrs. Dressings were applied to infected wounds of either MRSA S. aureus USA300 (FIG. 6A) or P. aeruginosa 27312 (FIG. 6B) as either a single treatment (day 1) or twice treated (Day 1 and 4) and all wounds were excised on day 7 for CFU renumeration. The amount of peptide applied in all treatments was 10 mg while 1 mg of ciprofloxacin was used in and treatment containing antibiotic. Mupirocin and silver sulfadiazine (SSD) were used as positive controls.
In vivo porcine dermal biofilm model: Peptide loaded dressings were evaluated using a porcine dermal biofilm infection model as described previously [Davis, S. C., et al. (2018). The wound-healing effects of a next-generation anti-biofilm silver Hydrofiber wound dressing on deep partial-thickness wounds using a porcine model. International Wound Journal, 15(5), 834-839]. Briefly, partial thickness wounds (10 mm×7 mm×1 mm deep) were created on the backs of the animals then infected with log-phase cultures of bacteria and allowed biofilms to form for 24-hrs. […]

[11] = tested on: 3-day-old oral plaque (multispecies) biofilms; assay: Oral plaque biofilm model, long-term (1-3 days) exposure, dead cell volume; format: cell-based
[12] = tested on: PAO1 biofilms on human skin organoid; assay: Skin organoid biofilm infection model, peptide solution, PAO1; format: cell-based, Pseudomonas aeruginosa; conditions: peptide solution 4 hrs (FIG. 3B)
[13] = tested on: P. aeruginosa PAO1 planktonic cells; assay: Planktonic inhibition by AB103-D single substitution variants, P. aeruginosa; format: cell-based; conditions: Pseudomonas; read-out: IC50 of AB103-D alone, planktonic
Description: A series of single amino acid substitution variants of the AB103-D peptide were generated on cellulose arrays using SPOT-synthesis technology [Hilpert, K., Winkler, D. F., & Hancock, R. E. W. (2007). Peptide arrays on cellulose support: SPOT synthesis, a time and cost efficient method for synthesis of large numbers of peptides in a parallel and addressable fashion. Nature Protocols, 2(6), 1333-1349; Frank, R. (2002). The SPOT-synthesis technique. Synthetic peptide arrays on membrane supports-principles and applications. J Immunol Methods, 267(1), 13-26] to test for enhanced Gram-negative activity against P. aeruginosa and determine which residues contribute to the antibiofilm effects of this peptide. 96 AB103-D variants were generated by replacing each residue in the parent peptide with one of D-Arg, D-Lys, D-Glu, Gly, D-Ala, D-Ile, D-Leu, D-Val and D-Trp. The biofilm inhibitory activity of all 96 AB103-D variants was subsequently assessed against MRSA USA300 LAC or P. aeruginosa PAO1 in a microtitre plate assay [Haney, E. F., Trimble, M. J., & Hancock, R. E. W. (2021). Microtiter plate assays to assess antibiofilm activity against bacteria. Nature Protocols, 16(5), 2615-2632]. […].

For CC[C@@H](C)[C@@H](NC(=O)[C@@H](C)NC(=O)[C@@H](CCCNC(=N)N)NC(=O)[C@@H](Cc1c[nH]c2ccccc12)NC(=O)[C@@H](CCC(N)=O)NC(=O)[C@H](NC(=O)[C@@H](CCCNC(=N)N)NC(=O)[C@H](NC(=O)[C@H](NC(=O)[C@@H](CCCNC(=N)N)NC(=O)[C@H](NC(=O)[C@H](N)CCCNC(=N)N)C(C)C)C(C)C)[C@H](C)CC)C(C)C)C(N)=O [AB103-D, rvrvirvqwrai-NH2] (H-[dR][dV][dR][dV][dI][dR][dV][dQ][dW][dR][dA][dI]-NH2), the “Killing of 3-day-old oral plaque biofilms” value [1] was “significantly more effective than DJK5”, the “MBIC of AB103-D alone” value ([2]; PAO1, BM2 minimal media, at least 70% reduction of biofilm biomass) was 2 µg/mL and the “Synergy with several other antimicrobials” value ([2]; PAO1 biofilms) was “proved synergistic with several other antimicrobials”. The Total biovolume [3] was “reduced total biovolume”, the “Percentage of dead bacterial cell volume” value ([3]; compared to DJK5) was “significantly higher percentage of dead bacterial cell volume compared to DJK5 treatment” and the “Bacterial burden on organoid skin, loaded bandage” value [4] was “effectively reduce the bacterial burden”. The “Proportion of dead bacteria within the biofilm” value [5] was “more effective than DJK5”, the Residual plaque biovolume [5] was “superior than DJK5” and the “Broad spectrum antibiofilm activity, more active than DJK5” value (ESKAPEE Pathogens) was 2-4 fold. The “Antibiofilm activity from collagen dressing” value [6] was “clearly superior activity to both DJK-5 and ciprofloxacin”, the “Cytotoxicity (LDH)” value [7] was “low toxicity” and the “Antibiofilm activity on skin organoid” value [8] was “excellent antibiofilm activity”. The “Antibiofilm activity from collagen dressing” value [9] was “clearly superior activity to both DJK-5 and ciprofloxacin”, the “Efficacy in porcine skin infection” value [10] was “worked as well or better than ciprofloxacin, mupirocin (for MRSA) or silver sulfadiazine (for P. aeruginosa)” and the “Proportion of dead biofilm cells” value ([11]; 10 μg/ml, daily for 3 days, compared to DJK5 (FIG. 16A)) was “superior to DJK5 at killing bacteria cells”. For the same compound, the “Proportion of dead biofilm cells” value ([11]; 1 or 5 μg/ml, daily for 3 days, compared to DJK5 (FIG. 16A)) was “killed more of the biofilm cells”, the “Proportion of dead biofilm cells” value ([11]; all three concentrations, one day (FIG. 16C)) was “killed more biofilm cells than DJK5” and the “Proportion of dead biofilm cells” value ([11]; all three concentrations, two days (FIG. 16B)) was “killed more biofilm cells than DJK5”. For the same compound, the “Antibiofilm activity on skin organoid” value [12] was “excellent antibiofilm activity” and the IC50 [13] was 16 µM.
